Experiment: Hygroscopicity of the isolated solid on exposure to air
Assay type: physicochemical
Details: light yellow foamy solid from Method 1; turns into gummy residue on exposure to air
Protocol: Method 1: Metformin free base (1.29 g, 0.010 mol) was taken in methanol (15 mL) and while stirring L-Glutamic acid (0.74 g, […]) was added as solid. Lipoic acid (1.03 g, […]) was separately dissolved in methanol (15 mL) and added to this mixture through a in-line syringe filter (to remove polymeric material, if any). The mixture was continued to stir for 30 min. […] Metformin.L-Glutamic acid.R-Lipoic acid salt (2.9 g) was obtained as light yellow foamy solid. […] The residue was suspended in acetonitrile (30 mL) and stirred for 18 h. Filtered the pale yellow solid and dried in vacuum for 16 h to get 2.32 g of 3. ^1H NMR (200 MHz, D2O) δ 1.15-2.1 (10H, m), δ 2.1-2.42 (5H, m), δ2.88 (12H, s), δ 2.95-3.12 (1H, m) δ 3.48-3.62 (2H, m); ^13C NMR (200 MHz, D2O) δc 25.86, 27.25, 28.68, 33.81, 34.14, 37.66, 38.34, 40.51, 54.95, 56.93, 158.63, 160.28, 174.80, 181.44, 183.81.

## metformin-L-glutamic acid-R (+) lipoic acid salt
  hygroscopicity: high hygroscopic
